Reference: patent publication US4057684A, “Alkyl amino-glucopyranoside derivative and process for producing the same” (priority 1975, dated 1977)

What was measured:
leukemia L-1210 = experiment: increase in life span and survival of leukemia L-1210 implanted mice; format: in vivo, mouse (BDF1)
Excerpt: (§1) Results of pharmacological studies for amino-glucopyranoside [I] according to the invention are described below. The test compounds which were used included methyl N-carbamyl-N'-(2-chloroethyl)-N'-nitroso-2-amino-2-deoxy-α-D-glucopyranoside and methyl N-carbamyl-N'-(2-chloroethyl)-N'-nitroso-6-amino-6-deoxy-α-D-glucopyranoside (hereinafter abbreviated to 2MCαG and 6MCαG, respectively). The control compounds which were employed were 1-(2-chloroethyl)-3-cyclohexyl-1-nitrosoourea (hereinafter abbreviated to CCNU), which had been widely applied as a control compound in such a pharmacological test of the streptozotocin derivatives, and GCNU referred to previously. The tumor systems which were used were leukemia L-1210, Nakahara-Fukuoka sarcoma, adenocarcinoma-755, ascites sarcoma 180 and Ehrlich ascites carcinoma (hereinafter abbreviated to L-1210, NFS, Ca-755, S-180A and EAC, respectively), and the antitumor activities were determined by a procedure of the National Cancer Center, Tokyo (A. Hoshi et al.: Farumashia 9, 464(1973)). The test animals which were used were ICR and BDF1 mice.
(§2) ^a Treatment was initiated 24 hr after implantation of tumor (day 1):
(§3) D1~5 = qd, day 1~5; D1 = day 1 only.
^d % increase in life span (mean survival time) over controls.
^e 60 days survivors/total in treated group.

[1] = blood sugar level / diabetogenic activity; format: in vivo, rat (male Wister); conditions: rat, in vivo
[2] = acute toxicity (LD50) in mice; format: in vivo, mouse (ICR)
[3] = test system: Nakahara-Fukuoka sarcoma (NFS); experiment: antitumor effect against Nakahara-Fukuoka sarcoma (NFS) implanted in mice; format: in vivo, mouse (ICR)
Excerpt: as §1, §2, §3
(§4) ^b T/C is expressed as the tumor weight ratio in solid tumors or tota
(§5) packed cell volume ratio in ascites tumors of treated/control.

[4] = test system: solid as well as ascites tumor systems; experiment: antitumor activity in the tumor systems (overall); format: in vivo, mouse; conditions: mouse, in vivo
Excerpt: as §1

[5] = peripheral white blood cell counts (bone marrow toxicity) and survival in normal male ICR mice; format: in vivo, mouse (ICR)
Description: Such peripheral white blood cell counts were performed as follows: Normal male ICR mice were used in groups of tens and the test compounds for treatment were made into their respective solutions. 2MCαG and 6MCαG were dissolved in physiological saline solutions, while CCNU and GCNU were suspended in 0.5% CMC aqueous solution and 50% PEG aqueous solution, respectively. A single administration at volume of 1 ml per 100 g body weight of animal (0.1 ml/10 g) was given intraperitoneally, and the peripheral white blood cell counts were performed 3, 8 and 15 days after administration of the test compounds.

[6] = test system: adenocarcinoma-755 (Ca-755); experiment: antitumor effect against adenocarcinoma-755 (Ca-755) implanted in mice; format: in vivo, mouse (BDF1)
Excerpt: as §1, §2, §3, §4, §5

bacteria = experiment: antibacterial activity, broth dilution method
[7] = 12.5 mg/kg/day ip D1~5, ICR mice
[8] = 25.0 mg/kg/day ip D1~5, ICR mice
[9] = 35.0 mg/kg/day ip D1~5, ICR mice
[10] = 50.0 mg/kg/day ip D1~5, ICR mice
[11] = 6.3 mg/kg/day ip D1~5, BDF1 mice
[12] = 12.5 mg/kg/day ip D1~5, BDF1 mice
[13] = 25.0 mg/kg/day ip D1~5, BDF1 mice
[14] = 50.0 mg/kg/day ip D1~5, BDF1 mice

With `CO[C@H]1O[C@H](CNC(=O)N(CCCl)N=O)[C@@H](O)[C@H](O)[C@H]1O` [Example 6MCαG, methyl N-carbamyl-N'-(2-chloroethyl)-N'-nitroso-6-amino-6-deoxy-α-D-glucopyranoside] the ILS (leukemia L-1210; 3.0 mg/kg/day ip D1~5) was over 292%, the “Survivors (60 days survivors/total)” value (leukemia L-1210; 3.0 mg/kg/day ip D1~5) was 2/6 and the ILS (leukemia L-1210; 6.0 mg/kg/day ip D1~5) was over 639%. The “Survivors (60 days survivors/total)” value (leukemia L-1210; 6.0 mg/kg/day ip D1~5) was 3/6, the ILS (leukemia L-1210; 6.0 mg/kg/day po D1~5) was over 580% and the “Survivors (60 days survivors/total)” value (leukemia L-1210; 6.0 mg/kg/day po D1~5) was 4/6. For the same compound, the ILS (leukemia L-1210; 10.0 mg/kg/day ip D1~5) was over 645%, the “Survivors (60 days survivors/total)” value (leukemia L-1210; 10.0 mg/kg/day ip D1~5) was 3/6 and the ILS (leukemia L-1210; 12.5 mg/kg/day ip D1~5) was over 520%. For the same compound, the “Survivors (60 days survivors/total)” value (leukemia L-1210; 12.5 mg/kg/day ip D1~5) was 4/6, the ILS (leukemia L-1210; 12.5 mg/kg/day po D1~5) was over 570% and the “Survivors (60 days survivors/total)” value (leukemia L-1210; 12.5 mg/kg/day po D1~5) was 4/6. For the same compound, the ILS (leukemia L-1210; 25.0 mg/kg/day ip D1~5) was over 615%, the “Survivors (60 days survivors/total)” value (leukemia L-1210; 25.0 mg/kg/day ip D1~5) was 4/6 and the ILS (leukemia L-1210; 25.0 mg/kg/day po D1~5) was over 620%. The “Survivors (60 days survivors/total)” value (leukemia L-1210; 25.0 mg/kg/day po D1~5) was 4/6, the ILS (leukemia L-1210; 35.0 mg/kg ip D1 only) was over 717% and the “Survivors (60 days survivors/total)” value (leukemia L-1210; 35.0 mg/kg ip D1 only) was 6/6. The ILS (leukemia L-1210; 40.0 mg/kg/day ip D1~5) was over 237%, the “Survivors (60 days survivors/total)” value (leukemia L-1210; 40.0 mg/kg/day ip D1~5) was 2/6 and the ILS (leukemia L-1210; 45.0 mg/kg ip D1 only) was over 717%. The “Survivors (60 days survivors/total)” value (leukemia L-1210; 45.0 mg/kg ip D1 only) was 6/6, the ILS (leukemia L-1210; 6-25 mg/kg/day, 5 successive administrations, ip or orally) was 520-645% and the “activity against L-1210 compared with CCNU and GCNU” value (leukemia L-1210; mouse, in vivo) was “more active against L-1210”. For the same compound, the ILS (leukemia L-1210; single ip, 35-45 mg/kg) was 717%, the animals survived (leukemia L-1210; single ip, 35-45 mg/kg) was “all six animals survived” and the diabetogenic activity [1] was “free from diabetogenic”. The “toxicity compared with 2MCαG” value ([2]; by LD50, single administration) was “less toxic than 2MCαG”, the LD50 ([2]; mouse, in vivo, single administration) was 91 mg/kg and the Activity [3, 7] was “- (100~71% = -)”. For the same compound, the T/C [3, 7] was 77.8%, the Activity [3, 8] was “+ (70~51% = +)” and the T/C [3, 8] was 61.6%. For the same compound, the Activity [3, 9] was “++ (50~21% = ++)”, the T/C [3, 9] was 38.8% and the Activity [3, 10] was “Toxic”. The T/C [3, 10] was 34.1%, the died/used [3, 10] was 6/6 and the “antitumor effect compared with CCNU” value ([3]; ip, 5 successive days) was “more active than CCNU”. The antitumor activity [4] was “activity against solid as well as ascites tumor systems”, the “Death rate (death/used)” value ([5]; 40 mg/kg ip single) was 0/10 and the “Average count of WBC” value ([5]; 40 mg/kg ip single, day 3) was 73.2±3.5 x 10^2 WBC/mm^3. The “Average count of WBC” value ([5]; 40 mg/kg ip single, day 8) was 105.7±3.8 x 10^2 WBC/mm^3, the “Average count of WBC” value ([5]; 40 mg/kg ip single, day 15) was 136.9±10.0 x 10^2 WBC/mm^3 and the “Death rate (death/used)” value ([5]; 60 mg/kg ip single) was 0/10. The “Average count of WBC” value ([5]; 60 mg/kg ip single, day 3) was 41.1±4.1 x 10^2 WBC/mm^3, the “Average count of WBC” value ([5]; 60 mg/kg ip single, day 8) was 73.5±5.8 x 10^2 WBC/mm^3 and the “Average count of WBC” value ([5]; 60 mg/kg ip single, day 15) was 110.4±6.3 x 10^2 WBC/mm^3. For the same compound, the “Death rate (death/used)” value ([5]; 100 mg/kg ip single) was 2/10, the “Average count of WBC” value ([5]; 100 mg/kg ip single, day 3) was 31.2±2.5 x 10^2 WBC/mm^3 and the “Average count of WBC” value ([5]; 100 mg/kg ip single, day 8) was 71.9±4.9 x 10^2 WBC/mm^3. For the same compound, the “Average count of WBC” value ([5]; 100 mg/kg ip single, day 15) was 99.8±10.8 x 10^2 WBC/mm^3, the “Death rate (death/used)” value ([5]; 150 mg/kg ip single) was 10/10 and the “Average count of WBC” value ([5]; 150 mg/kg ip single, day 3) was 28.1±3.8 x 10^2 WBC/mm^3. For the same compound, the “Average count of WBC” value ([5]; 150 mg/kg ip single, day 8) was 61.0 x 10^2 WBC/mm^3, the incidence of leukopenia ([5]; LD10 doses) was “comparatively mild with rapid return to pretreatment levels” and the “acute toxicity compared with GCNU or CCNU” value ([5]; mouse, in vivo) was “much lower than that of either GCNU or CCNU”. For the same compound, the bone marrow toxicity ([5]; mouse, in vivo) was “improved bone marrow toxicity”, the “bone marrow toxicity compared with CCNU” value ([5]; mouse, in vivo) was “less toxic” and the “bone marrow toxicity compared with GCNU” value ([5]; mouse, in vivo) was “equivalent values as GCNU”. For the same compound, the Activity [6, 11] was “+ (70~51% = +)”, the T/C [6, 11] was 53.4% and the Activity [6, 12] was “+++ (20~0% = +++)”. The T/C [6, 12] was 16.3%, the Activity [6, 13] was “+++ (20~0% = +++)” and the T/C [6, 13] was 7.6%. The Activity [6, 14] was “Toxic”, the T/C [6, 14] was 0% and the died/used [6, 14] was 6/6. For the same compound, the “antitumor effect compared with CCNU” value ([6]; ip, 5 successive days) was “more active than CCNU” and the antibacterial activity (bacteria) was “free from diabetogenic and antibacterial activities”.
